In assay [1] the test system is E. coli UTI89 vsfGFP-9 biofilms. The experiment in a line: Immune clearance test: phagocytosis of biofilm bacteria by RAW 264.7 macrophages (flow cytometry). The class given is cell-based. As to conditions: RAW 264.7 cells, 10:1 bacteria:cell, 30 min, 37° C. As for the experimental part:
FIG. 14. The macrophages are not able to phagocytose biofilm-associated bacteria (A). Administration of AP193 breaks up the biofilms and yields a greater fraction of free-swimming bacteria that are susceptible to phagocytosis (B).
To investigate this proposition, biofilms were cultivated in the presence or absence of synthetic α-sheet peptides (shown for AP193 in FIG. 14) and then co-incubated with murine macrophages. A chromosome-based GFP derivative of E. coli UTI89, vsfGFP-9, was used to visualize the extent of phagocytosis in each case with flow cytometry. Murine monocyte/macrophage-like cells, RAW 264.7, were cultured in DMED+10% FBS at 37° C. in 75 cm^2 flasks. Biofilms were grown in 48 well plates for 48 h in YESCA broth+4% DMSO at 26° C. Planktonic cells were aspirated and biofilms rinsed and gently detached from plates using sterile PBS. The suspensions were combined in a 10:1 (bacteria:cell) ratio with RAW 264.7 cells and incubated for 30 min at 37° C. in PBS to allow uptake of bacteria by macrophages. Trypsin was added at a concentration of 0.25% and incubated for 10 min to remove any bacteria bound to the external surfaces of the RAW 264.7 cells. […] Cells were then gated according to positive GFP (phagocytosed bacteria) using bacteria-free controls on a FACS Cantoll flow cytometer, and the percentage of cells positive for GFP was recorded and analyzed.
Background: A flow cytometer gives signals particle by particle.

Assay [2] has as its system E. coli UTI89 WT biofilms. Briefly: Antibiotic susceptibility test with gentamicin (live/dead ratio and CFU counts). As to conditions: 150 μg/mL gentamicin, 6 h, vs peptide-free controls. The class given is cell-based. The method, then:
FIG. 13. Synthetic α-sheet peptides increase antibiotic susceptibility of uropathogenic E. coli biofilms, as measured by A) live/dead fluorescence ratio and (B) CFU counts. Error bars indicate standard deviation of the mean of at least three replicates.
To test this hypothesis, biofilms of E. coli UTI89 WT were grown in YESCA broth+4% DMSO in 48 well plates at 26° C. Media was removed 6 h prior to the end of the 48 h incubation period and replaced either with fresh media alone or fresh media containing 150 μg/mL gentamicin (Gm), an aminoglycoside antibiotic. After the 6 h incubation, biofilms were harvested by aspirating the planktonic cells, rinsing the biofilm once with PBS, and then resuspending the biofilm in PBS. Biofilm suspensions were homogenized with a probe sonicator and subjected to one of two processing protocols. In the first assay, the bacterial density of each biofilm suspension was normalized by absorbance at 670 nm and then bacteria were stained with Live/Dead (Syto9/propidum iodide) to obtain a fluorescent readout of viability. In the second assay, biofilm suspensions were serially diluted in sterile PBS and then plated on agar plates to obtain colony-forming unit (CFU) counts.

Another assay has as its system UTI89 WT biofilms. The experiment in a line: Biofilm adherence to glass slides after washing. To be noted: after gentle washing. Type of assay: cell-based, E. coli. An excerpt: FIG. 12. […] Error bars indicate standard deviation of the mean of at least three replicates. Significance values are p<0.05: *, p<0.01: **, p<0.001: ***.
UTI89 biofilms were also cultivated in the presence of an unstructured peptide, P1, which retains a mixture of L- and D-amino acids but lacks the α-sheet secondary structure of AP193.

Assay [3] relates to S. aureus SH1000 WT biofilms. The experiment in a line: TEM of biofilm extracellular fibrils. Type of assay: cell-based, Staphylococcus aureus. To be noted: LB medium, 80 μM. As for the experimental part: FIG. 2. S. aureus biofilm structures become less robust when grown in the presence of designed peptide inhibitors. (A) S. aureus MN8+mCherry™ biofilms were grown on glass substrates for 24 hours and then cells were washed and fixed. Addition of peptide inhibitors (80 μM) reduced adhesion to the slide, causing cells to detach during the wash step. Images are representative of duplicate wells. (B) In S. aureus SH1000 WT biofilms grown in regular LB medium, PSM amyloid fibrils are visible as deposits in spaces between cells (left). Upon addition of the designed peptide AP90 (80 μM), no extracellular fibril deposits were observed (right).
To further investigate the ability of designed peptides to inhibit PSM amyloid formation, fluorescent (mCherry™ ) MN8 biofilms were grown in culture plates with glass bottom wells. After 24 hours at 37° C. the biofilms were gently rinsed with pipetted saline to remove unattached biomass and the remaining attached cells were fixed and imaged. […] These qualitative results are in good agreement with the quantitative results obtained for amyloid inhibition in FIG. 1B. Addition of anti-α-sheet peptides triggered a significant reduction in PSM amyloid formation as measured by ThT fluorescence and also served to weaken the S. aureus biofilms by reducing the PSM amyloid fibril content of the extracellular matrix. […]

Two substances from US11033604B2, “Reagents and methods for treating bacterial infection” (priority 2018, dated 2021) can be followed below.

Non-standard residues stand in square brackets, D forms with d. No end group written: not given here.

As for “RGEmNyFwMNEYYGWtMnCkMGR (RGE[dM]N[dY]F[dW]MNEYYGW[dT]M[dN]C[dK]MGR) [AP193, hydrophobic AP90 derivative, variant to support different chemical coupling reactions]”, in assay [1], the “Susceptibility of biofilm bacteria to phagocytosis” value is “more susceptible to phagocytosis”. The “Efficacy of gentamicin (Gm) against biofilms (live/dead ratio, CFU counts)” value in assay [2] was “improved the efficacy of Gm”. Further, in the assay on UTI89 WT biofilms, the “Adherence of biofilm to glass slides” value was “far less adherent to glass slides”.
As for “RGEmNlSwMNEYSGWtMnLkMGR (RGEMNLSWMNEYSGWTMNLKMGR; not fully specified (residues 4, 6, 8, 16, 18, 20); printed as RGEmNlSwMNEYSGWtMnLkMGR) [AP90]”, in assay [3], the “Extracellular PSM amyloid fibril deposits by TEM” value is recorded as “amyloid fibrils could not be found”.
